In patent US20040029816A1, “Hepatoprotective activity of 10-O-P-hydroxybenzoyiaucubin” (priority 2002, published 2004):

Tests used:
[1] = system: CCl4 induced hepatic injury; assay: Hepatoprotective activity (in vivo) against CCl4 induced hepatic injury in rats
Text: Treatment of experimental animals with the 033 and 033(1) against CCU induced liver damage reduced the elevated levels of serum GPT, GOT, ALP, bilirubin, TG and hepatic lipid peroxidation and increased the GSH level.

[2] = system: GalN induced hepatic injury; assay: Hepatoprotective activity (in vivo) against galactosamine (GalN) induced hepatic injury in rats
Text: The hepatoprotective activity observed with 033 and 033(1) was 59.58 & 44.97, 56.62 & 44.05, 54.28 & 47.66, 57.71 & 66.66, 57.89 & 49.33 percent in serum GPT, GOT, Bilirubin, ALP, and TG respectively and 67.51 & 48.34, 66.56 & 55.13 percent in hepatic lipid peroxidation (LP) and GSH respectively. The same with silymarin was 57.38, 55.40, 60.00, 53.54,46.17, 69.59, 67.18 percent respectively (Table-2). [table]

[3] = liver homogenate, rats, fed p.o. at 48 h, 24 h, 2 h before and 6 h after CCl4 (1 ml/kg, p.o.), 033 400 mg/kg, 033 (1) and silymarin 50 mg/kg, mean of six animals
[4] = rats, fed p.o. at 48 h, 24 h, 2 h before and 6 h after CCl4 (1 ml/kg, p.o.), 033 400 mg/kg, 033 (1) and silymarin 50 mg/kg, mean of six animals
[5] = rats, fed p.o. at 48 h, 24 h, 2 h before and 6 h after CCl4 (1 ml/kg, p.o.), 033 400 mg/kg, 033 (1) and silymarin 50 mg/kg, mean of six animals, listed as 033(1)
[6] = liver, rats, fed p.o. at 48 h, 24 h, 2 h before and 6 h after GalN (300 mg/kg, s.c.), 033 400 mg/kg, 033 (1) and silymarin 50 mg/kg, mean of six animals
[7] = rats, fed p.o. at 48 h, 24 h, 2 h before and 6 h after GalN (300 mg/kg, s.c.), 033 400 mg/kg, 033 (1) and silymarin 50 mg/kg, mean of six animals

O=C(OCC1=C[C@@H](O)[C@@H]2C=CO[C@@H](O[C@@H]3O[C@H](CO)[C@@H](O)[C@H](O)[C@H]3O)[C@H]12)c1ccc(O)cc1 [033 (1), 10-O-p-hydroxybenzoylaucubin]
hepatoprotective activity (in words) ([1]; experimentally induced hepatic damage with CCl4 in rats): marked hepatoprotective activity | Hepatoprotective activity, hepatic Glutathione (GSH) [1, 3]: 38.12% | Hepatoprotective activity, hepatic Lipid peroxidation (LP) [1, 3]: 41.48% | Hepatoprotective activity, serum ALP (table head: Al.F) [1, 4]: 60.2% | Hepatoprotective activity, serum Bilirubin (table head: Bihrubin (mg %)) [1, 4]: 71.79% | Hepatoprotective activity, serum GOT (Units) [1, 4]: 57.43% | Hepatoprotective activity, serum GPT (table head: OPT (Units)) [1, 4]: 59.52% | Hepatoprotective activity, serum Triglycerides (TG) [1, 4]: 38.53% | Hepatoprotective activity, serum ALP (table head: Al.F) [1, 5]: 60.17% | Hepatoprotective activity, serum GOT (Units) [1, 5]: 57.42% | hepatoprotective activity (in words) ([2]; experimentally induced hepatic damage with galactosamine (GalN) in rats): marked hepatoprotective activity | Hepatoprotective activity, hepatic Glutathione (GSH) [2, 6]: 55.13% | Hepatoprotective activity, hepatic Lipid peroxidation (LP) [2, 6]: 48.34% | Hepatoprotective activity, serum ALP [2, 7]: 66.66% | Hepatoprotective activity, serum Bilirubin (mg %) [2, 7]: 47.66% | Hepatoprotective activity, serum GOT (Units) [2, 7]: 44.05% | Hepatoprotective activity, serum GPT (Units) [2, 7]: 44.97% | Hepatoprotective activity, serum Triglycerides (mg %) [2, 7]: 49.33%
